According to US20240287138A1, “CYCLIC PEPTIDES FOR INHIBITING TNF RECEPTOR 1 ACTIVITY” (Merck Sharp & Dohme LLC, priority 2023, published 2024):
Like-named read-outs stand apart in the source and are kept apart here. Numbered stars: 1 amine (or outer) side, 2 acyl side, 3 side chain; on linkers, the order of the positions; unused ones are H or OH. Square brackets hold non-standard residues; d marks the D form. Peptide text beside a SMILES is read from it. Trp(βS-Me,7-OMe) = COc1cccc2c([C@H](C)[C@H](N)C(=O)O)c[nH]c12; Phe(4-SO2NH2) = N[C@@H](Cc1ccc(S(N)(=O)=O)cc1)C(=O)O; Phe(2-F,4-COOH) = N[C@@H](Cc1ccc(C(=O)O)cc1F)C(=O)O; Trp(7-CN) = N#Cc1cccc2c(C[C@H](N)C(=O)O)c[nH]c12; Trp(7-Cl) = N[C@@H](Cc1c[nH]c2c(Cl)cccc12)C(=O)O; Ala(pyrimidin-5-yl) = N[C@@H](Cc1cncnc1)C(=O)O; Phe(3-CONH2) = NC(=O)c1cccc(C[C@H](N)C(=O)O)c1; Phe(4-CONH2) = NC(=O)c1ccc(C[C@H](N)C(=O)O)cc1; Phe(4-COOH) = N[C@@H](Cc1ccc(C(=O)O)cc1)C(=O)O; 4Pal(3S-Me) = C[C@@H](c1ccncc1)[C@H](N)C(=O)O; Trp(7-aza) = N[C@@H](Cc1c[nH]c2ncccc12)C(=O)O; Pip(5R-OH) = O=C(O)[C@@H]1CC[C@@H](O)CN1; X1 = O=C([C@@H]1CC[C@H](N[*:1])C1)[*:2]; Met(O2) = CS(=O)(=O)CC[C@H](N)C(=O)O; 4Pal = N[C@@H](Cc1ccncc1)C(=O)O; dHyp = O=C(O)[C@H]1C[C@H](O)CN1; Cit = NC(=O)NCCC[C@H](N)C(=O)O; Ahp(2) = CCCCC[C@H](N)C(=O)O; hSer = N[C@@H](CCO)C(=O)O; αMeS = C[C@](N)(CO)C(=O)O; Nle = CCCC[C@H](N)C(=O)O; Sar = CNCC(=O)O

What was measured:
[1] = molecular target: T1, human soluble TNFR1 (sTNFR1) (Homo sapiens, UniProt P19438); experiment: Human sTNFR1-peptide displacement assay (LanthaScreen Eu TR-FRET binding assay)
T1 construct: made in house; host or cells: Sf21 (baculovirus)
T1 sequence (P19438 with tags, fused parts or gaps): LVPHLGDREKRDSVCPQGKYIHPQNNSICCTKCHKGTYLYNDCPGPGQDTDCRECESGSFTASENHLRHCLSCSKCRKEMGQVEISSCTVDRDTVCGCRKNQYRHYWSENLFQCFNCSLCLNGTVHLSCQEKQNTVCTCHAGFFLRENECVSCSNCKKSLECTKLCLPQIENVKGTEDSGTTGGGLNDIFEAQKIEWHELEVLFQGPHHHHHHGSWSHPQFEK
Outline: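 Readout is the 665/615 nm TR-FRET ratio (Eu anti-His donor, streptavidin-Alexa647 acceptor), normalized to DMSO and saturating displacer, fit by Morrison-based five-parameter logistic for Kd^app. His-tagged sTNFR1 (1-211) prebound to 100 nM biotinylated peptide SEQ ID NO.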

[2] = molecular target: T2, TNFα-induced NF-κB signal transduction pathway (TNFR1 signaling) in THP-1 cells (Homo sapiens, UniProt P19438); experiment: THP-1 Lucia NF-κB reporter cell assay, inhibition of TNFα-induced NF-κB signaling; type: cell-based; conditions: THP-1 NF-κB Lucia reporter cells, 10 ng/mL TNFα, 16-18 h, secreted luciferase; read-out: THP-1 IC50
T2 sequence (P19438 30-455): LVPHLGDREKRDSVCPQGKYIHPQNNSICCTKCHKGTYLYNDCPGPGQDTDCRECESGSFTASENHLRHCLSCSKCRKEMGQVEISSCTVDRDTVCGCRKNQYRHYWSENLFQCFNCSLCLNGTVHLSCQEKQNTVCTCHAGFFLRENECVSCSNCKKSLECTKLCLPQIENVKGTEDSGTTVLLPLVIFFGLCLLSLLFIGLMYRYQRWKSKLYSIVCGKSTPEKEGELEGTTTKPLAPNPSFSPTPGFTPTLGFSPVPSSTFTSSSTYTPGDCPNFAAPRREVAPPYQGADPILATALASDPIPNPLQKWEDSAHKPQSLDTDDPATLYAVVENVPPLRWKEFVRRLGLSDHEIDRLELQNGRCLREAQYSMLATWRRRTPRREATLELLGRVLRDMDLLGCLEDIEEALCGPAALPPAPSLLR
Outline: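 Inhibition of TNFR1-driven NF-κB activation was measured as luminescence of secreted reporter luciferase following overnight (16-18 h) stimulation with 10 ng/mL TNFα.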

[3] = displacement of biotinylated peptide SEQ ID NO. 1 from sTNFR1, 20 point titration, 5-parameter fit based on Morrison equation (tight binding), read-out: TR-FRET Kd^app

CCCCC[C@@H]1NC(=O)[C@@H]2CC[C@@H](C2)NC(=O)[C@H]([C@@H](C)c2c[nH]c3c(OC)cccc23)NC(=O)CN(C)C(=O)[C@H](Cc2ccc(C(N)=O)cc2)NC(=O)[C@H](Cc2ccc(C(N)=O)cc2)NC(=O)[C@](C)(CO)NC(=O)[C@H](Cc2c[nH]c3c(C#N)cccc23)NC(=O)[C@H](Cc2ccc(C(=O)O)cc2)NC(=O)[C@H](CC(N)=O)NC(=O)[C@H]2C[C@H](O)CN2C(=O)[C@H](Cc2c[nH]c3ccccc23)NC(=O)[C@H](CCS(C)(=O)=O)NC(=O)[C@H]([C@@H](C)c2ccncc2)NC1=O [SEQ ID NO. 49] (cyclo([Ahp(2)][4Pal(3S-Me)][Met(O2)]W[dHyp]N[Phe(4-COOH)][Trp(7-CN)][αMeS][Phe(4-CONH2)][Phe(4-CONH2)][Sar][Trp(βS-Me,7-OMe)][X1]))
Kd [1]: 0.2 nM | IC50 [2]: 0.7 nM

CCCCC[C@@H]1NC(=O)[C@@H]2CC[C@@H](C2)NC(=O)[C@H]([C@@H](C)c2c[nH]c3c(OC)cccc23)NC(=O)CN(C)C(=O)[C@H](Cc2ccc(C(N)=O)cc2)NC(=O)[C@H](Cc2ccc(C(N)=O)cc2)NC(=O)[C@](C)(CO)NC(=O)[C@H](Cc2c[nH]c3c(C#N)cccc23)NC(=O)[C@H](Cc2ccc(C(=O)O)cc2)NC(=O)[C@H](CC(N)=O)NC(=O)[C@H]2C[C@H](O)CN2C(=O)[C@H](Cc2c[nH]c3ccccc23)NC(=O)[C@H](CCO)NC(=O)[C@H]([C@@H](C)c2ccncc2)NC1=O [SEQ ID NO. 50] (cyclo([Ahp(2)][4Pal(3S-Me)][hSer]W[dHyp]N[Phe(4-COOH)][Trp(7-CN)][αMeS][Phe(4-CONH2)][Phe(4-CONH2)][Sar][Trp(βS-Me,7-OMe)][X1]))
Kd [1]: 0.2 nM | IC50 [2]: 0.9 nM

CCCC[C@@H]1NC(=O)[C@@H]2CC[C@@H](C2)NC(=O)[C@H]([C@@H](C)c2c[nH]c3c(OC)cccc23)NC(=O)CN(C)C(=O)[C@H](Cc2ccc(C(=O)O)cc2F)NC(=O)[C@H](Cc2ccc(S(N)(=O)=O)cc2)NC(=O)[C@](C)(CO)NC(=O)[C@H](Cc2c[nH]c3c(C#N)cccc23)NC(=O)[C@H](Cc2ccc(C(=O)O)cc2F)NC(=O)[C@H](CC(N)=O)NC(=O)[C@H]2C[C@H](O)CN2C(=O)[C@H](Cc2c[nH]c3ncccc23)NC(=O)[C@@H]2CC[C@@H](O)CN2C(=O)[C@H](Cc2cncnc2)NC1=O [SEQ ID NO. 51] (cyclo(N[Phe(2-F,4-COOH)][Trp(7-CN)][αMeS][Phe(4-SO2NH2)][Phe(2-F,4-COOH)][Sar][Trp(βS-Me,7-OMe)][X1][Nle][Ala(pyrimidin-5-yl)][Pip(5R-OH)][Trp(7-aza)][dHyp]))
Kd [1, 3]: 0.05 nM | IC50 [2]: 0.4 nM

CCCC[C@@H]1NC(=O)[C@@H]2CC[C@@H](C2)NC(=O)[C@H]([C@@H](C)c2c[nH]c3c(OC)cccc23)NC(=O)CN(C)C(=O)[C@H](Cc2ccc(C(=O)O)cc2)NC(=O)[C@H](Cc2ccc(C(N)=O)cc2)NC(=O)[C@](C)(CO)NC(=O)[C@H](Cc2c[nH]c3c(Cl)cccc23)NC(=O)[C@H](Cc2ccncc2)NC(=O)[C@H](CC(N)=O)NC(=O)[C@H]2C[C@H](O)CN2C(=O)[C@H](Cc2c[nH]c3ccccc23)NC(=O)[C@@H]2CC[C@@H](O)CN2C(=O)[C@H](Cc2ccncc2)NC1=O [SEQ ID NO. 53] (cyclo([4Pal][Trp(7-Cl)][αMeS][Phe(4-CONH2)][Phe(4-COOH)][Sar][Trp(βS-Me,7-OMe)][X1][Nle][4Pal][Pip(5R-OH)]W[dHyp]N))
Kd [1, 3]: 0.09 nM | IC50 [2]: 0.6 nM

COc1cccc2c([C@H](C)[C@@H]3NC(=O)CN(C)C(=O)[C@H](Cc4cccc(C(N)=O)c4)NC(=O)[C@H](Cc4ccc(C(=O)O)cc4)NC(=O)[C@](C)(CO)NC(=O)[C@H](Cc4c[nH]c5c(Cl)cccc45)NC(=O)[C@H](Cc4ccncc4)NC(=O)[C@H](CC(N)=O)NC(=O)[C@H]4C[C@H](O)CN4C(=O)[C@H](Cc4c[nH]c5ccccc45)NC(=O)[C@@H]4CC[C@@H](O)CN4C(=O)[C@H](Cc4ccncc4)NC(=O)[C@H](CCCNC(N)=O)NC(=O)[C@@H]4CC[C@@H](C4)NC3=O)c[nH]c12 [SEQ ID NO. 54] (cyclo([4Pal][Trp(7-Cl)][αMeS][Phe(4-COOH)][Phe(3-CONH2)][Sar][Trp(βS-Me,7-OMe)][X1][Cit][4Pal][Pip(5R-OH)]W[dHyp]N))
Kd [1]: 0.24 nM | IC50 [2]: 1.8 nM
